Assays:
[1] = target: dihydrofolate reductase (DHFR) (Escherichia coli, UniProt P0ABQ4); test: LDA screening of LOPAC library with DNA-linked trimethoprim probe; assay type: binding; details: FIG. 2f
Protocol: (§1) FIGS. 2A-2H show the application of LDA in quantifying compounds' IC50 and screening. […] IC50 of compound 1-3 determined by LDA (FIG. 2B) and FP assay (FIG. 2C). […] DNA samples with read numbers below 2 in sequencing were excluded.
(§2) Enrichment of the probes from the two groups were well distinguished (Z′ factor=0.77), indicating a robustness suitable for HTS (FIG. 1e). To further assess well-to-well variability, this experiment was repeated with separate incubation of samples in a well plate. A similar but slightly worse Z′ factor (Z′=0.54, Fig. SX) was observed. We then used this approach to screen the Library of Pharmacologically Active Compounds (LOPAC) library against dihydrofolate reductase (DHFR), a therapeutic target for treating infections (FIG. 2f). Hit compounds within the library displaces the DNA-linked trimethoprim, leading to lower enrichment of the DNA-trimethoprim.

DHFR = DHFR (Escherichia coli, UniProt P0ABQ4); test: Validation of novel hit by FP assay (IC50); assay type: binding; details: validation of screening hit; FIG. 2g
Protocol: as §1, §2

For CN(CCOc1ccc(C[C@H](Nc2ccccc2C(=O)c2ccccc2)C(=O)O)cc1)c1ccccn1 [GW1929], which “probe recovery (enrichment of DNA-trimethoprim) in LOPAC screen” value [1] is on record?
The value was “low probe recovery”.

And the IC50 (DHFR)?
Its IC50 is 7.9 µM.

Reference: patent US12669497B2, “Affinity labeling of DNA-linked ligands for high throughput ligand binding assays and the uses thereof” (Purdue Research Foundation, priority 2020, dated 2026)
